Data on six compounds can be found in PubChem BioAssay AID1259407 (Chemical Carcinogenesis Research Information System (CCRIS), 2018).

Calls of active or inactive are those of the source. No rule for the calls is given here.

In this series the test system is CCRIS mutagenicity, Ames/micronucleus/aberration tests. Description: CCRIS mutagenicity studies.
The mark [1] stands for this setting: Test System: AMES SALMONELLA TYPHIMURIUM, Strain/Indicator: TA98, Metabolic Activation: NONE, Method: PREINCUBATION
Where [2] appears, read: Test System: AMES SALMONELLA TYPHIMURIUM, Strain/Indicator: TA100, Metabolic Activation: NONE, Method: PREINCUBATION
Setting [3] is: Test System: AMES SALMONELLA TYPHIMURIUM, Strain/Indicator: TA1535, Metabolic Activation: NONE, Method: PREINCUBATION
The mark [4] stands for this setting: Test System: AMES SALMONELLA TYPHIMURIUM, Strain/Indicator: TA1537, Metabolic Activation: NONE, Method: PREINCUBATION
[5] abbreviates: Test System: AMES SALMONELLA TYPHIMURIUM, Strain/Indicator: TA98, Metabolic Activation: RAT, LIVER, S-9, PCB, Method: PREINCUBATION
Setting [6] is: Test System: AMES SALMONELLA TYPHIMURIUM, Strain/Indicator: TA98, Metabolic Activation: RAT LIVER S-9, PHENOBARBITAL AND BETA-NAPHTHOFLAVONE, Method: PREINCUBATION
Where [7] appears, read: Test System: AMES SALMONELLA TYPHIMURIUM, Strain/Indicator: TA100, Metabolic Activation: RAT LIVER S-9, PHENOBARBITAL AND BETA-NAPHTHOFLAVONE, Method: PREINCUBATION
[8] abbreviates: Test System: AMES SALMONELLA TYPHIMURIUM, Strain/Indicator: TA1535, Metabolic Activation: RAT LIVER S-9, PHENOBARBITAL AND BETA-NAPHTHOFLAVONE, Method: PREINCUBATION
[9] abbreviates: Test System: AMES SALMONELLA TYPHIMURIUM, Strain/Indicator: TA1537, Metabolic Activation: RAT LIVER S-9, PHENOBARBITAL AND BETA-NAPHTHOFLAVONE, Method: PREINCUBATION
Setting [10] is: Test System: E.COLI, Strain/Indicator: WP2UVRA, Metabolic Activation: NONE, Method: PREINCUBATION
Setting [11] is: Test System: E.COLI, Strain/Indicator: WP2UVRA, Metabolic Activation: RAT LIVER S-9, PHENOBARBITAL AND BETA-NAPHTHOFLAVONE, Method: PREINCUBATION

Turning to `Clc1ccc(C(c2ccc(Cl)cc2)C(Cl)(Cl)Cl)cc1`, the mutagenic call is, setting by setting: (Test System: AMES SALMONELLA TYPHIMURIUM, Strain/Indicator: TA97, Metabolic Activation: HAMSTER, LIVER, S-9, AROCLOR 1254 (10 OR 30%), Method: PREINCUBATION) “inactive; negative”; (Test System: AMES SALMONELLA TYPHIMURIUM, Strain/Indicator: TA97, Metabolic Activation: NONE, Method: PREINCUBATION) “inactive; negative”; (Test System: AMES SALMONELLA TYPHIMURIUM, Strain/Indicator: TA97, Metabolic Activation: RAT, LIVER, S-9, AROCLOR 1254 (10 OR 30%), Method: PREINCUBATION) “inactive; negative”; (Test System: AMES SALMONELLA TYPHIMURIUM, Strain/Indicator: TA98, Metabolic Activation: HAMSTER, LIVER, S-9, AROCLOR 1254 (10 OR 30%), Method: PREINCUBATION) “inactive; negative”; under setting [1], “inactive; negative”; (Test System: AMES SALMONELLA TYPHIMURIUM, Strain/Indicator: TA98, Metabolic Activation: RAT, LIVER, S-9, AROCLOR 1254 (10 OR 30%), Method: PREINCUBATION) “inactive; negative”. Besides, the mutagenic call was “inactive; negative” (Test System: AMES SALMONELLA TYPHIMURIUM, Strain/Indicator: TA100, Metabolic Activation: HAMSTER, LIVER, S-9, AROCLOR 1254 (10 OR 30%), Method: PREINCUBATION); “inactive; negative” under setting [2]; “inactive; negative” (Test System: AMES SALMONELLA TYPHIMURIUM, Strain/Indicator: TA100, Metabolic Activation: RAT, LIVER, S-9, AROCLOR 1254 (10 OR 30%), Method: PREINCUBATION); “inactive; negative” (Test System: AMES SALMONELLA TYPHIMURIUM, Strain/Indicator: TA1535, Metabolic Activation: HAMSTER, LIVER, S-9, AROCLOR 1254 (10 OR 30%), Method: PREINCUBATION); “inactive; negative” under setting [3]; “inactive; negative” (Test System: AMES SALMONELLA TYPHIMURIUM, Strain/Indicator: TA1535, Metabolic Activation: RAT, LIVER, S-9, AROCLOR 1254 (10 OR 30%), Method: PREINCUBATION). Besides, the mutagenic call reads like this: (Test System: AMES SALMONELLA TYPHIMURIUM, Strain/Indicator: TA1537, Metabolic Activation: HAMSTER, LIVER, S-9, AROCLOR 1254 (30%), Method: PREINCUBATION) “inactive; negative”; under setting [4], “inactive; negative”; (Test System: AMES SALMONELLA TYPHIMURIUM, Strain/Indicator: TA1537, Metabolic Activation: RAT, LIVER, S-9, AROCLOR 1254 (30%), Method: PREINCUBATION) “inactive; negative”; (Test System: CHINESE HAMSTER V-79, Strain/Indicator: V-79/8-AZAGUANINE, Metabolic Activation: NONE, Method: STANDARD PLATE) “active; positive”.
For the compound `Nc1cccc2nc3cccc(N)c3nc12`, the mutagenic call under setting [1] was “inactive; negative” and the mutagenic call under setting [5] was “inactive; negative”.
For `CC(C)(c1ccccc1)c1ccc(O)cc1`, the mutagenic call by setting is: under setting [1], “inactive; negative”; under setting [6], “inactive; negative”; under setting [2], “inactive; negative”; under setting [7], “inactive; negative”; under setting [3], “inactive; negative”; under setting [8], “inactive; negative”. Also, the mutagenic call by setting is: under setting [4], “inactive; negative”; under setting [9], “inactive; negative”; (Test System: AMES SALMONELLA TYPHIMURIUM, Strain/Indicator: TA1538, Metabolic Activation: NONE, Method: PREINCUBATION) “inactive; negative”; (Test System: AMES SALMONELLA TYPHIMURIUM, Strain/Indicator: TA1538, Metabolic Activation: RAT LIVER S-9, PHENOBARBITAL AND BETA-NAPHTHOFLAVONE, Method: PREINCUBATION) “inactive; negative”; under setting [10], “inactive; negative”; under setting [11], “inactive; negative”.
Consider `CCN(CC)CCO`, for which the mutagenic call reads like this: (Test System: AMES SALMONELLA TYPHIMURIUM, Strain/Indicator: TA98, Metabolic Activation: HAMSTER, LIVER, S-9, AROCLOR 1254 (10%), Method: PREINCUBATION) “inactive; negative”; under setting [1], “inactive; negative”; (Test System: AMES SALMONELLA TYPHIMURIUM, Strain/Indicator: TA98, Metabolic Activation: RAT, LIVER, S-9, AROCLOR 1254 (10%), Method: PREINCUBATION) “inactive; negative”; (Test System: AMES SALMONELLA TYPHIMURIUM, Strain/Indicator: TA100, Metabolic Activation: HAMSTER, LIVER, S-9, AROCLOR 1254 (10%), Method: PREINCUBATION) “inactive; negative”; under setting [2], “inactive; negative”; (Test System: AMES SALMONELLA TYPHIMURIUM, Strain/Indicator: TA100, Metabolic Activation: RAT, LIVER, S-9, AROCLOR 1254 (10%), Method: PREINCUBATION) “inactive; negative”. Besides, the mutagenic call (Test System: AMES SALMONELLA TYPHIMURIUM, Strain/Indicator: TA1535, Metabolic Activation: HAMSTER, LIVER, S-9, AROCLOR 1254 (10%), Method: PREINCUBATION) is “inactive; negative”; the mutagenic call under setting [3] was “inactive; negative”; the mutagenic call (Test System: AMES SALMONELLA TYPHIMURIUM, Strain/Indicator: TA1535, Metabolic Activation: RAT, LIVER, S-9, AROCLOR 1254 (10%), Method: PREINCUBATION) was “inactive; negative”; the mutagenic call (Test System: AMES SALMONELLA TYPHIMURIUM, Strain/Indicator: TA1537, Metabolic Activation: HAMSTER, LIVER, S-9, AROCLOR 1254 (10%), Method: PREINCUBATION) was “inactive; negative”; the mutagenic call under setting [4] was “inactive; negative”; the mutagenic call (Test System: AMES SALMONELLA TYPHIMURIUM, Strain/Indicator: TA1537, Metabolic Activation: RAT, LIVER, S-9, AROCLOR 1254 (10%), Method: PREINCUBATION) is “inactive; negative”.
For `C[C@@H]1O[C@@H]1c1ccccc1`, the mutagenic call reads like this: (Test System: AMES SALMONELLA TYPHIMURIUM, Strain/Indicator: TA98, Metabolic Activation: NONE, Method: PREINCUBATION (PHOSPHATE-BUFFERED KCL OR SOLUTE-FREE WATER MEDIA)) “inactive; negative”; (Test System: AMES SALMONELLA TYPHIMURIUM, Strain/Indicator: TA100, Metabolic Activation: NONE, Method: PREINCUBATION (PHOSPHATE-BUFFERED KCL OR SOLUTE-FREE WATER MEDIA)) “inactive; negative”; (Test System: AMES SALMONELLA TYPHIMURIUM, Strain/Indicator: TA104, Metabolic Activation: NONE, Method: PREINCUBATION (PHOSPHATE-BUFFERED KCL OR SOLUTE-FREE WATER MEDIA)) “inactive; negative”; (Test System: CHINESE HAMSTER V-79, Strain/Indicator: V-79 (HPRT)/6-THIOGUANINE, Metabolic Activation: NONE) “inactive; negative”.
`C1COCCN1`: the mutagenic call runs as follows: under setting [1], “inactive; negative”; under setting [6], “inactive; negative”; under setting [5], “inactive; negative”; under setting [2], “inactive; negative”; under setting [7], “inactive; negative”; (Test System: AMES SALMONELLA TYPHIMURIUM, Strain/Indicator: TA100, Metabolic Activation: RAT, LIVER, S-9, PCB, Method: PREINCUBATION) “inactive; negative”. The mutagenic call is, setting by setting: under setting [3], “inactive; negative”; under setting [8], “inactive; negative”; under setting [4], “inactive; negative”; under setting [9], “inactive; negative”; under setting [10], “inactive; negative”; under setting [11], “inactive; negative”.
